Laboratory results: patent publication US5096884A, “Glidobactin PF-1 peptide antibiotics” (Bristol-Myers Squibb Company, priority 1990, dated 1992)
≈ marks a conversion by molar mass, not a printed value. Read-outs that look alike come from different tables or passages of the source.

Tests used:
[1] = tested on: protein synthesis in L1210 murine leukemia cells; assay: Inhibition of macromolecule synthesis, 3H-leucine incorporation; type: cell-based; conditions: for effect on protein synthesis (in words) / IC50, Protein synthesis: L1210 cells; for IC50, Protein synthesis: 3H-leucine, 4 hrs
Protocol: (§1) Inhibitory effects of glidobactins A and PF-1 on macromolecule biosynthesis (DNA, RNA, and protein) were determined in cultured L1210 murine leukemia cells. The cells (5×10^5 cells/mL) were incubated with test compounds at 37° C. for 15 min and further incubated for 4 hrs after the addition of labeled precursor, ^3 H-thymidine, ^14 C-uridine, or ^3 H-leucine into the cultured mixture. After washing with chilled 5% trichloroacetic acid solution, the radioactivity incorporated into the acid-insoluble fraction of the cells was determined by a liquid scintillation counter.

[2] = tested on: RNA synthesis in L1210 murine leukemia cells; assay: Inhibition of macromolecule synthesis, 14C-uridine incorporation; type: cell-based; conditions: for IC50, RNA synthesis: L1210 cells, 14C-uridine, 4 hrs; for inhibitory effect on RNA synthesis (in words): at 100 μg/mL, the highest concentration tested
Protocol: as §1

B16 Melanoma (ip) = conditions: for T/C % of MST: ip, QD1→9, ≥125% significant; for antitumor activity against ip-B16 melanoma (in words): at the doses tested
Protocol: (§2) In vivo antitumor activity of glidobactin PF-1 was determined in experimental mouse tumor systems. Female CDF1 and male BDF1 mice were intraperitoneally inoculated with 0.4 mL of diluted ascitic fluid containing 10^6 lymphocytic leukemia P388 cells and 0.5 mL of 10% melanotic melanoma B16 brei, respectively. Test compounds were intraperitoneally administered daily for 9 days starting from 1 day after the tumor implantation.

P388 Leukemia (ip) = conditions: for T/C % of MST: ip, QD1→9, ≥125% significant; for maximum T/C value: P388 leukemia, ip daily for 9 days
Protocol: as §2

[3] = tested on: P388 (murine lymphocytic leukemia) cells; type: cell-based; conditions: for IC50: P388 cells, 72 hrs
Protocol: (§3) Glidobactin PF-1 and glidobactin A were tested for in vitro cytotoxicity against murine tumor cell lines and for in vivo antitumor activity in mice. Mitomycin C was used as a reference compound in both in vitro and in vivo experiments. B16-F10 (murine melanoma) cells were grown to the logarithmic phase in an enriched Eagle minimum essential medium supplemented with fetal calf serum (FCS, 10%) and kanamycin (60 μg/ml). P388 (murine lymphocytic leukemia) cells were in RPMI1640 medium supplemented with FCS (10%), penicillin (100 U/ml), and streptomycin (100 μg/ml). B16-F10 and P388 cells were harvested and implanted into wells of a 96-well (for B16-F10 cells) and a 24-well (for P388 cells) tissue culture plate with test materials at the inoculum sizes of 3×10^4 and 2×10^4 cells/mL, respectively. They were incubated at 37° C. in a humidified atmosphere of 5% CO2 and 95% air for 72 hrs. The cytotoxicity against B16-F10 cells was colorimetrically determined at 540 nm after staining viable cells with 0.006% neutral red solution. As for P388 cells, the number of viable cells was determined by a Coulter counter.

[4] = tested on: B16-F10 (murine melanoma) cells; type: cell-based; conditions: for IC50: B16-F10 cells, 72 hrs
Protocol: as §3

[5] = tested on: DNA synthesis in L1210 murine leukemia cells; assay: Inhibition of macromolecule synthesis, 3H-thymidine incorporation; type: cell-based; conditions: for IC50, DNA synthesis: L1210 cells, 3H-thymidine, 4 hrs; for inhibitory effect on DNA synthesis (in words): at 100 μg/mL, the highest concentration tested
Protocol: as §1

[6] = tested on: Sporothrix schenckii IFO 8158; assay: MIC by serial agar dilution method; type: cell-based; conditions: Sabouraud dextrose agar; inoculum 10^5-10^7
[7] = tested on: Candida albicans IAM 4888; assay: MIC by serial agar dilution method; type: cell-based; conditions: Sabouraud dextrose agar; inoculum 10^5-10^7
Candida albicans A9540 = assay: MIC by serial agar dilution method; type: cell-based; conditions: Sabouraud dextrose agar; inoculum 10^5-10^7
Escherichia coli NIHJ = assay: MIC by serial agar dilution method; type: cell-based; conditions: Nutrient agar; inoculum 10^4 CFU/mL
Piricularia oryzae D9 = conditions: Sabouraud dextrose agar; inoculum 10^5-10^7
[8] = tested on: Bacillus subtilis PCI 219; assay: MIC by serial agar dilution method; type: cell-based; conditions: Nutrient agar; inoculum 10^4 CFU/mL
[9] = tested on: Trichophyton mentagrophytes D155; assay: MIC by serial agar dilution method; type: cell-based; conditions: Sabouraud dextrose agar; inoculum 10^5-10^7
[10] = tested on: Streptoccoccus faecalis A9612; assay: MIC by serial agar dilution method; type: cell-based; conditions: Nutrient agar; inoculum 10^4 CFU/mL
[11] = tested on: Staphyloccoccus aureus 209P; assay: MIC by serial agar dilution method; type: cell-based; conditions: Nutrient agar; inoculum 10^4 CFU/mL
[12] = tested on: Aspergillus fumigatus IAM 2530; assay: MIC by serial agar dilution method; type: cell-based; conditions: Sabouraud dextrose agar; inoculum 10^5-10^7
[13] = tested on: Cryptococcus neoformans D49; assay: MIC by serial agar dilution method; type: cell-based; conditions: Sabouraud dextrose agar; inoculum 10^5-10^7
[14] = tested on: Fusarium moniliforme A2284; assay: MIC by serial agar dilution method; type: cell-based; conditions: Sabouraud dextrose agar; inoculum 10^5-10^7
[15] = tested on: Klebsiella pneumoniae D 11; assay: MIC by serial agar dilution method; type: cell-based; conditions: Nutrient agar; inoculum 10^4 CFU/mL
[16] = tested on: Blastomyces dermatitidis IFO 8144; assay: MIC by serial agar dilution method; type: cell-based; conditions: Sabouraud dextrose agar; inoculum 10^5-10^7
Mucor spinosus IFO 5317 = assay: MIC by serial agar dilution method; type: cell-based; conditions: Sabouraud dextrose agar; inoculum 10^5-10^7
[17] = tested on: Pseudomonas aeruginosa A9930; assay: MIC by serial agar dilution method; type: cell-based; conditions: Nutrient agar; inoculum 10^4 CFU/mL
fungi = assay: In vitro antifungal activity; type: cell-based
Protocol: (§4) The minimum inhibitory concentrations (MIC's) of glidobactin PF-1 were determined for various microorganisms by a serial agar dilution method. Nutrient agar (Eiken) was used for bacteria and Sabouraud dextrose agar (Difco) for fungi. The inoculum size was adjusted to 10^4 CFU/mL for bacteria and 10^5 -10^7 for fungi. Invitro antibacterial and antifungal activities of glidobactin PF-1 are shown in Table 3 together with the activities found with glidobactin C.

bacteria tested = assay: In vitro antibacterial activity; type: cell-based; conditions: at 100 μg/ml
Protocol: as §4

CCCCCCC/C=C/C=C/C(=O)N[C@H](C(=O)N[C@H]1C[C@@H](O)CCNC(=O)/C=C/[C@H](C)NC1=O)[C@@H](C)O [Glidobactin A, glidobactin A]
effect on protein synthesis (in words) [1]: inhibited protein synthesis
IC50, Protein synthesis [1]: 0.03 µg/mL (≈ 0.0576 µM)
IC50, RNA synthesis [2]: > 100 µg/mL
inhibitory effect on RNA synthesis (in words) [2]: no significant inhibitory effect
T/C % of MST (B16 Melanoma (ip); B16, 0.13 mg/kg/day): 97%
T/C % of MST (B16 Melanoma (ip); B16, 0.25 mg/kg/day): 100%
T/C % of MST (B16 Melanoma (ip); B16, 0.5 mg/kg/day): 113%
T/C % of MST (B16 Melanoma (ip); B16, 1 mg/kg/day): 116%
antitumor activity against ip-B16 melanoma (in words) (B16 Melanoma (ip)): no significant antitumor activity
T/C % of MST (P388 Leukemia (ip); P388, 0.031 mg/kg/day): 100%
T/C % of MST (P388 Leukemia (ip); P388, 0.063 mg/kg/day): 110%
T/C % of MST (P388 Leukemia (ip); P388, 0.13 mg/kg/day): 130%
T/C % of MST (P388 Leukemia (ip); P388, 0.25 mg/kg/day): 150%
T/C % of MST (P388 Leukemia (ip); P388, 0.5 mg/kg/day): 155%
T/C % of MST (P388 Leukemia (ip); P388, 1 mg/kg/day): 190%
maximum T/C value (P388 Leukemia (ip)): 190%
cytotoxicity (in words) [3]: potent cytotoxicity
IC50 [3]: 0.008 µg/mL (≈ 0.0154 µM)
cytotoxicity (in words) [4]: potent cytotoxicity
IC50 [4]: 0.04 µg/mL (≈ 0.0768 µM)
IC50, DNA synthesis [5]: > 100 µg/mL
inhibitory effect on DNA synthesis (in words) [5]: no significant inhibitory effect

CCCCCCCCC/C=C/C=C/C(=O)N[C@H](C(=O)N[C@H]1C[C@@H](O)CCNC(=O)/C=C\[C@H](C)NC1=O)[C@@H](C)O [Glidobactin C, glidobactin C]
MIC [6]: > 50 µg/mL
MIC [7]: 0.4 µg/mL (≈ 0.729 µM)
MIC (Candida albicans A9540): 0.2 µg/mL (≈ 0.364 µM)
MIC (Escherichia coli NIHJ): > 100 µg/mL
MIC (Piricularia oryzae D9): 6.3 µg/mL (≈ 11.5 µM)
MIC [8]: > 100 µg/mL
MIC [9]: 0.8 µg/mL (≈ 1.46 µM)
MIC [10]: > 100 µg/mL
MIC [11]: > 100 µg/mL
MIC [12]: 1.6 µg/mL (≈ 2.92 µM)
MIC [13]: 0.8 µg/mL (≈ 1.46 µM)
MIC [14]: > 50 µg/mL
MIC [15]: > 100 µg/mL
MIC [16]: 3.1 µg/mL (≈ 5.65 µM)
MIC (Mucor spinosus IFO 5317): 0.8 µg/mL (≈ 1.46 µM)
MIC [17]: > 100 µg/mL

CCC=CCC=CCCC=CC=CC(=O)NC(C(=O)NC1CC(O)CCNC(=O)C=CC(C)NC1=O)C(C)O (stereo not shown) [Glidobactin PF-1, glidobactin PF-1]
MIC [6]: > 50 µg/mL
MIC [7]: 12.5 µg/mL (≈ 22.9 µM)
MIC (Candida albicans A9540): 6.3 µg/mL (≈ 11.6 µM)
MIC (Escherichia coli NIHJ): > 100 µg/mL
effect on protein synthesis (in words) [1]: inhibited protein synthesis
IC50, Protein synthesis [1]: 0.07 µg/mL (≈ 0.129 µM)
inhibitory activity on protein synthesis relative to glidobactin A ([1]; relative to glidobactin A): approximately half
MIC (Piricularia oryzae D9): 12.5 µg/mL (≈ 22.9 µM)
MIC [8]: > 100 µg/mL
MIC [9]: 12.5 µg/mL (≈ 22.9 µM)
MIC [10]: > 100 µg/mL
IC50, RNA synthesis [2]: > 100 µg/mL
inhibitory effect on RNA synthesis (in words) [2]: no significant inhibitory effect
T/C % of MST (B16 Melanoma (ip); B16, 0.13 mg/kg/day): 103%
T/C % of MST (B16 Melanoma (ip); B16, 0.25 mg/kg/day): 118%
T/C % of MST (B16 Melanoma (ip); B16, 0.5 mg/kg/day): 113%
T/C % of MST (B16 Melanoma (ip); B16, 1 mg/kg/day): 111%
antitumor activity against ip-B16 melanoma (in words) (B16 Melanoma (ip)): no significant antitumor activity
T/C % of MST (P388 Leukemia (ip); P388, 0.016 mg/kg/day): 118%
T/C % of MST (P388 Leukemia (ip); P388, 0.031 mg/kg/day): 129%
T/C % of MST (P388 Leukemia (ip); P388, 0.063 mg/kg/day): 133%
T/C % of MST (P388 Leukemia (ip); P388, 0.13 mg/kg/day): 160%
T/C % of MST (P388 Leukemia (ip); P388, 0.25 mg/kg/day): 170%
T/C % of MST (P388 Leukemia (ip); P388, 0.5 mg/kg/day): 174%
T/C % of MST (P388 Leukemia (ip); P388, 1 mg/kg/day): 130%
maximum T/C value (P388 Leukemia (ip)): 174%
potency against P388 relative to glidobactin A (P388 Leukemia (ip); in vivo P388, relative to glidobactin A): approximately 4 times
solubility (in words) (in methanol, ethanol, n-butanol, and dimethyl sulfoxide): soluble
solubility (in words) (in n-hexane and water): insoluble
cytotoxicity (in words) [3]: potent cytotoxicity
IC50 [3]: 0.010 µg/mL (≈ 0.0184 µM)
cytotoxicity (in words) [4]: potent cytotoxicity
IC50 [4]: 0.07 µg/mL (≈ 0.129 µM)
MIC [11]: > 100 µg/mL
activity against fungi (in words) (fungi): moderate activity
intrinsic antifungal activity compared with glidobactin C (in words) (fungi; relative to glidobactin C): considerably weaker
IC50, DNA synthesis [5]: > 100 µg/mL
inhibitory effect on DNA synthesis (in words) [5]: no significant inhibitory effect
MIC [12]: 12.5 µg/mL (≈ 22.9 µM)
MIC [13]: 25 µg/mL (≈ 45.9 µM)
MIC [14]: > 50 µg/mL
MIC [15]: > 100 µg/mL
MIC [16]: 12.5 µg/mL (≈ 22.9 µM)
inhibition of the bacteria tested (in words) (bacteria tested): did not inhibit
MIC (Mucor spinosus IFO 5317): 3.1 µg/mL (≈ 5.69 µM)
MIC [17]: > 100 µg/mL

CO[C@@]12[C@H](COC(N)=O)C3=C(C(=O)C(C)=C(N)C3=O)N1C[C@@H]1N[C@@H]12 [Mitomycin C]
IC50, Protein synthesis [1]: > 100 µg/mL
IC50, RNA synthesis [2]: > 100 µg/mL
T/C % of MST (P388 Leukemia (ip); P388, 0.031 mg/kg/day): 115%
T/C % of MST (P388 Leukemia (ip); P388, 0.063 mg/kg/day): 140%
T/C % of MST (P388 Leukemia (ip); P388, 0.13 mg/kg/day): 145%
T/C % of MST (P388 Leukemia (ip); P388, 0.25 mg/kg/day): 170%
T/C % of MST (P388 Leukemia (ip); P388, 0.5 mg/kg/day): 190%
T/C % of MST (P388 Leukemia (ip); P388, 1 mg/kg/day): 225%
IC50 [4]: 0.50 µg/mL (≈ 1.5 µM)
IC50, DNA synthesis [5]: 1.7 µg/mL (≈ 5.08 µM)
